Assay results from ChEMBL document CHEMBL1201862, “PubChem BioAssay data set” (2004).
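Where inhibition never reached the appropriate level, the endpoint shown equals the highest concentration tested. Otherwise, values were interpolated linearly from a five-concentration, 48-hour dose response in 96-well plates. At the GI50, growth is halved.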 The source made the active and inactive calls. No stated cut-off is given here; in the data, active = GI50 up to about 1.1 µM and inactive = higher.

Key:
Assay in all cases: growth of human tumour cells (NCI), 48 h
NCI-H460 = tested on: NCI-H460
MDA-MB-231 = tested on: MDA-MB-231
COLO 205 = tested on: COLO 205
HOP-92 = tested on: HOP-92
T47D = tested on: T47D
HCT-15 = tested on: HCT-15
TK-10 = tested on: TK-10
SK-MEL-28 = tested on: SK-MEL-28
CCRF-CEM = tested on: CCRF-CEM
SW-620 = tested on: SW-620
MDA-MB-435 = tested on: MDA-MB-435
BT-549 = tested on: BT-549
NCI/ADR-RES = tested on: NCI/ADR-RES
DU-145 = tested on: DU-145
NCI-H226 = tested on: NCI-H226
OVCAR-8 = tested on: OVCAR-8
786-0 = tested on: 786-0
ACHN = tested on: ACHN
A498 = tested on: A498

| Structure (SMILES) | GI50 (NCI-H460) | GI50 (MDA-MB-231) | GI50 (COLO 205) | GI50 (HOP-92) | GI50 (T47D) | GI50 (HCT-15) [µM] | GI50 (TK-10) | GI50 (SK-MEL-28) | GI50 (CCRF-CEM) | GI50 (SW-620) | GI50 (MDA-MB-435) | GI50 (BT-549) | GI50 (NCI/ADR-RES) | GI50 (DU-145) | GI50 (NCI-H226) | GI50 (OVCAR-8) | GI50 (786-0) | GI50 (ACHN) | GI50 (A498) |
| --- | --- | --- | --- | --- | --- | --- | --- | --- | --- | --- | --- | --- | --- | --- | --- | --- | --- | --- | --- |
| CC(C)=NN/C(=N\c1ccc(Cl)cc1)NS(=O)(=O)c1ccc(Oc2cccc(Cl)c2C#N)cc1 | > 100 µM (inactive) | > 100 µM (inactive) | > 100 µM (inactive) | > 100 µM (inactive) | > 100 µM (inactive) | > 100 | > 100 µM (inactive) | > 100 µM (inactive) | > 100 µM (inactive) | > 100 µM (inactive) | > 100 µM (inactive) | > 100 µM (inactive) | > 100 µM (inactive) | > 100 µM (inactive) | > 100 µM (inactive) | > 100 µM (inactive) | > 100 µM (inactive) | – | – |
| CCc1n[nH]c(=O)n1N1C(=O)C2CC=CCC2C1=O (stereo not drawn) | > 100 µM (inactive) | > 100 µM (inactive) | > 100 µM (inactive) | > 100 µM (inactive) | > 100 µM (inactive) | > 100 | > 100 µM (inactive) | – | > 100 µM (inactive) | > 100 µM (inactive) | > 100 µM (inactive) | > 100 µM (inactive) | > 100 µM (inactive) | – | > 100 µM (inactive) | > 100 µM (inactive) | > 100 µM (inactive) | > 100 µM (inactive) | > 100 µM (inactive) |
| CC1=C(/C=C/C(C)=C/C=C/C(C)=C/C(=O)OC2CC(n3cc(F)c(=O)[nH]c3=O)OC2CO)C(C)(C)CCC1 (stereo not drawn) | 0.0429 µM (active) | 9.73 µM (inactive) | 6.93 µM (inactive) | 11.3 µM (inactive) | 4.17 µM (inactive) | 4.35 | 11.5 µM (inactive) | 7.73 µM (inactive) | 0.374 µM (active) | 10.6 µM (inactive) | 3.97 µM (inactive) | 1.58 µM (inactive) | 2.05 µM (inactive) | 0.476 µM (active) | 25.4 µM (inactive) | 0.526 µM (active) | 0.52 µM (active) | 0.082 µM (active) | – |
| CCN(CC)CCn1c(=O)c2c(C)c3oc4ccccc4oc3c(C)c2c1=O | > 100 µM (inactive) | > 100 µM (inactive) | > 100 µM (inactive) | > 100 µM (inactive) | – | > 100 | > 100 µM (inactive) | – | > 100 µM (inactive) | > 100 µM (inactive) | > 100 µM (inactive) | > 100 µM (inactive) | > 100 µM (inactive) | – | > 100 µM (inactive) | > 100 µM (inactive) | 48.2 µM (inactive) | > 100 µM (inactive) | > 100 µM (inactive) |
| COc1cc(CC2CCc3nc(N)nc(N)c3C2)cc(OC)c1OC (stereo not drawn) | 0.0571 µM (active) | – | 1.6 µM (inactive) | 26.5 µM (inactive) | 21.6 µM (inactive) | 0.0925 | > 45.7 µM (inactive) | > 36.5 µM (inactive) | – | 0.914 µM (active) | 4.24 µM (inactive) | 9.55 µM (inactive) | – | 1.79 µM (inactive) | > 24.3 µM (inactive) | > 32.7 µM (inactive) | 0.0536 µM (active) | 0.163 µM (active) | 20.7 µM (inactive) |
| COc1cc(C/N=c2/nc(N(C)C)ss2)cc(OC)c1OC | > 10 µM (inactive) | > 10 µM (inactive) | > 10 µM (inactive) | > 10 µM (inactive) | > 10 µM (inactive) | > 10 | > 10 µM (inactive) | > 7.31 µM (inactive) | 0.189 µM (active) | 5.6 µM (inactive) | > 10 µM (inactive) | – | > 10 µM (inactive) | > 10 µM (inactive) | > 10 µM (inactive) | > 4.99 µM (inactive) | 3.24 µM (inactive) | > 10 µM (inactive) | > 10 µM (inactive) |
| O=C(CCCl)NN=C1NCCCCN1 | > 100 µM (inactive) | > 100 µM (inactive) | > 100 µM (inactive) | > 100 µM (inactive) | > 100 µM (inactive) | > 100 | > 100 µM (inactive) | > 100 µM (inactive) | > 100 µM (inactive) | > 100 µM (inactive) | > 100 µM (inactive) | > 100 µM (inactive) | > 100 µM (inactive) | > 100 µM (inactive) | > 100 µM (inactive) | > 100 µM (inactive) | > 100 µM (inactive) | > 100 µM (inactive) | – |
| C/C(=N\NC(=O)CC#N)C(CN1CCCCC1)C(c1ccccc1)c1c(O)c2ccccc2oc1=O (stereo not drawn) | – | 35.5 µM (inactive) | 18.6 µM (inactive) | 18.5 µM (inactive) | – | 45.5 | 91.8 µM (inactive) | > 100 µM (inactive) | 26.2 µM (inactive) | 91.4 µM (inactive) | 53.2 µM (inactive) | 54.2 µM (inactive) | 48.9 µM (inactive) | > 100 µM (inactive) | 52.1 µM (inactive) | 63.5 µM (inactive) | 78 µM (inactive) | 35 µM (inactive) | 21.7 µM (inactive) |
| CN(NC1=NCCO1)c1ccc2ccccc2c1 | 27.2 µM (inactive) | 26.3 µM (inactive) | 41.1 µM (inactive) | 13.6 µM (inactive) | 62.5 µM (inactive) | 49.4 | > 100 µM (inactive) | 70.3 µM (inactive) | 17.2 µM (inactive) | 34.1 µM (inactive) | 34.5 µM (inactive) | – | 33.2 µM (inactive) | > 100 µM (inactive) | 34.1 µM (inactive) | 47.3 µM (inactive) | 54.6 µM (inactive) | 62.8 µM (inactive) | 44.3 µM (inactive) |
| O=c1[nH]c(=S)[nH]c2c(C3OC(CO)C(O)C3O)nsc12 (stereo not drawn) | > 100 µM (inactive) | – | > 100 µM (inactive) | > 100 µM (inactive) | > 100 µM (inactive) | > 100 | > 100 µM (inactive) | > 100 µM (inactive) | > 100 µM (inactive) | > 100 µM (inactive) | > 100 µM (inactive) | > 100 µM (inactive) | > 100 µM (inactive) | > 100 µM (inactive) | > 100 µM (inactive) | > 100 µM (inactive) | – | – | > 100 µM (inactive) |
| Cc1ccc(O)c(-c2cc(-c3cccc(Cl)c3)c(C#N)c(N)n2)c1 | 19.6 µM (inactive) | 20.7 µM (inactive) | 15.7 µM (inactive) | 13.1 µM (inactive) | 29.9 µM (inactive) | 12.2 | 18.1 µM (inactive) | – | 24.4 µM (inactive) | 17.2 µM (inactive) | 13.9 µM (inactive) | 36.3 µM (inactive) | 24.7 µM (inactive) | 44.5 µM (inactive) | 18.7 µM (inactive) | 31 µM (inactive) | 20.4 µM (inactive) | 17.9 µM (inactive) | – |
| CN1C(=O)c2c(c3c4ccccc4n(C4OC(CO)C(O)C(O)C4O)c3c3[nH]c4ccccc4c23)C1=O (stereo not drawn) | 3.1 µM (inactive) | 1.51 µM (inactive) | 0.944 µM (active) | 1.08 µM (active) | – | 4.82 | 3.12 µM (inactive) | 2.14 µM (inactive) | 0.268 µM (active) | 1.71 µM (inactive) | 2.29 µM (inactive) | 4.99 µM (inactive) | 12.5 µM (inactive) | 2.74 µM (inactive) | 1.77 µM (inactive) | 1.42 µM (inactive) | 2.67 µM (inactive) | 2.14 µM (inactive) | 1.45 µM (inactive) |
| CC1=C(C)C(=O)OC(C(C)(O)C2(O)CCC3(O)C4CC(Cl)C5(O)C(O)C=CC(=O)C5(C)C4CCC32C)C1 (stereo not drawn) | 36.1 µM (inactive) | 30.2 µM (inactive) | 12.9 µM (inactive) | > 100 µM (inactive) | > 100 µM (inactive) | 28.7 | 34.3 µM (inactive) | 49 µM (inactive) | 14.1 µM (inactive) | 21.3 µM (inactive) | 18.7 µM (inactive) | 46.3 µM (inactive) | – | > 100 µM (inactive) | > 100 µM (inactive) | 25.1 µM (inactive) | 32.3 µM (inactive) | 42.1 µM (inactive) | 52.6 µM (inactive) |
| COC(=O)c1ccccc1/C=C1\Cc2c(ccc3c2CCC3)C1=O | > 100 µM (inactive) | – | > 100 µM (inactive) | 85.9 µM (inactive) | > 100 µM (inactive) | > 100 | > 100 µM (inactive) | > 100 µM (inactive) | > 100 µM (inactive) | > 100 µM (inactive) | > 100 µM (inactive) | > 100 µM (inactive) | > 100 µM (inactive) | > 100 µM (inactive) | > 100 µM (inactive) | 78.9 µM (inactive) | 70 µM (inactive) | > 100 µM (inactive) | > 100 µM (inactive) |
| O=C(NCCc1ccccc1)c1c(O)nc2ccccc2c1O | > 100 µM (inactive) | > 100 µM (inactive) | > 100 µM (inactive) | > 100 µM (inactive) | – | > 100 | > 100 µM (inactive) | > 100 µM (inactive) | > 100 µM (inactive) | > 100 µM (inactive) | > 100 µM (inactive) | > 100 µM (inactive) | > 100 µM (inactive) | > 100 µM (inactive) | > 100 µM (inactive) | > 100 µM (inactive) | > 100 µM (inactive) | > 100 µM (inactive) | > 100 µM (inactive) |
| CSCCCNC(=O)c1csc(-c2csc(CCNC(=O)CNC(=O)CNC(=O)OC(C)(C)C)n2)n1 | > 100 µM (inactive) | > 100 µM (inactive) | > 100 µM (inactive) | > 100 µM (inactive) | – | > 100 | > 100 µM (inactive) | > 100 µM (inactive) | > 100 µM (inactive) | > 100 µM (inactive) | > 100 µM (inactive) | > 100 µM (inactive) | > 100 µM (inactive) | > 100 µM (inactive) | > 100 µM (inactive) | > 100 µM (inactive) | > 100 µM (inactive) | > 100 µM (inactive) | > 100 µM (inactive) |
